Measurements published in ChEMBL document CHEMBL5291721, “A preclinical secondary pharmacology resource illuminates target-adverse drug reaction associations of marketed drugs” (Nat Commun, 2023).

Columns and labels:
[1] = target: Growth hormone secretagogue receptor type 1 (Homo sapiens, UniProt Q92847)
Histamine H1 receptor = Histamine H1 receptor (Homo sapiens, UniProt P35367)
Histamine H3 receptor = Histamine H3 receptor (Homo sapiens, UniProt Q9Y5N1)
[2] = target: T1, Prostaglandin G/H synthase 1 (Rattus norvegicus, UniProt Q63921); assay type: functional
T1 sequence (Q63921 whole entry): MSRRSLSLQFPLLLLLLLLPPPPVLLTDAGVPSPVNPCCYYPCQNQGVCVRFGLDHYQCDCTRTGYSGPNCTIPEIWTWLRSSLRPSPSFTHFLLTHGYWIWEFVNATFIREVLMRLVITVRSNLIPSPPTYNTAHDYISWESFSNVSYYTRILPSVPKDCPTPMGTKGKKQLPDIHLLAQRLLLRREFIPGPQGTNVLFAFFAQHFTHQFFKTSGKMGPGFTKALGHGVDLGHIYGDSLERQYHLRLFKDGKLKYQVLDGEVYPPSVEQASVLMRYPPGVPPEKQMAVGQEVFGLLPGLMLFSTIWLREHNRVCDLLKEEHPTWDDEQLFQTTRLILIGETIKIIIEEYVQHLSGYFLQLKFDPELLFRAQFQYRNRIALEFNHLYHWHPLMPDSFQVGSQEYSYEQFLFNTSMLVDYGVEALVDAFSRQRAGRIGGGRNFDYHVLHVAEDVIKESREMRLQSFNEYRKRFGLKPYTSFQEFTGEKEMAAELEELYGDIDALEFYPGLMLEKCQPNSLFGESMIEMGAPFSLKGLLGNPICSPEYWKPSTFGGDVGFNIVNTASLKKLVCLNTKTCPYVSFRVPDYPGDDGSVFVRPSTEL

[3] = target: 5-hydroxytryptamine receptor 2A (Homo sapiens, UniProt P28223); assay type: functional, cell-based
[4] = target: T2, Gamma-aminobutyric acid receptor subunit alpha-1 (Rattus norvegicus, UniProt P62813)
[5] = target: T3, Alpha-2A adrenergic receptor (Homo sapiens, UniProt P08913); assay type: functional, cell-based
T3 sequence (P08913 whole entry): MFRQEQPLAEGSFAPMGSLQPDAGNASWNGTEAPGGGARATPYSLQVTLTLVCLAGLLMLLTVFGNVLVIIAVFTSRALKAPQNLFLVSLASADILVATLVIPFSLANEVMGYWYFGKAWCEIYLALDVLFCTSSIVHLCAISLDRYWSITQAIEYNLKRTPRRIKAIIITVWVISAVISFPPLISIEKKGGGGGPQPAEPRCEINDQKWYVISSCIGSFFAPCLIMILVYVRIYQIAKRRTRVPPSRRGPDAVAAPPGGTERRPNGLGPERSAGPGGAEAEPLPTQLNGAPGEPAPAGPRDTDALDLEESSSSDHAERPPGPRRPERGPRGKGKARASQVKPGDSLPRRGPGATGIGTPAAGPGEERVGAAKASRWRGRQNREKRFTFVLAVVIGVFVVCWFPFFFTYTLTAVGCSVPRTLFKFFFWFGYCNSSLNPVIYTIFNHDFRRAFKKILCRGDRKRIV

[6] = target: T4, 5-hydroxytryptamine receptor 2C (Homo sapiens, UniProt P28335)
T4 sequence (P28335 whole entry): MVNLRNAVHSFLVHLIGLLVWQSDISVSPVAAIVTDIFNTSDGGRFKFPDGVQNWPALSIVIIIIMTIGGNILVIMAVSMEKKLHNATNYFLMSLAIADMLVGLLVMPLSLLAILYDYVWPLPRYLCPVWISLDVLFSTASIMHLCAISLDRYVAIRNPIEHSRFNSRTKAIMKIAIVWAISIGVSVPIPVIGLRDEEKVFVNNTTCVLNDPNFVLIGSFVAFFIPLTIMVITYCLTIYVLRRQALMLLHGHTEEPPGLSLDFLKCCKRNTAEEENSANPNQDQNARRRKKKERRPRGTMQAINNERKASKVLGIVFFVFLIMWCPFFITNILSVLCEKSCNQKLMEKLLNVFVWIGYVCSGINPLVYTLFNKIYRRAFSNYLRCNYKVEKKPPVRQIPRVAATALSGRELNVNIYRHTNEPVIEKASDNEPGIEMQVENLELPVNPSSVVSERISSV

Progesterone receptor = target: T5, Progesterone receptor (Homo sapiens, UniProt P06401); assay type: functional
T5 sequence (P06401 whole entry): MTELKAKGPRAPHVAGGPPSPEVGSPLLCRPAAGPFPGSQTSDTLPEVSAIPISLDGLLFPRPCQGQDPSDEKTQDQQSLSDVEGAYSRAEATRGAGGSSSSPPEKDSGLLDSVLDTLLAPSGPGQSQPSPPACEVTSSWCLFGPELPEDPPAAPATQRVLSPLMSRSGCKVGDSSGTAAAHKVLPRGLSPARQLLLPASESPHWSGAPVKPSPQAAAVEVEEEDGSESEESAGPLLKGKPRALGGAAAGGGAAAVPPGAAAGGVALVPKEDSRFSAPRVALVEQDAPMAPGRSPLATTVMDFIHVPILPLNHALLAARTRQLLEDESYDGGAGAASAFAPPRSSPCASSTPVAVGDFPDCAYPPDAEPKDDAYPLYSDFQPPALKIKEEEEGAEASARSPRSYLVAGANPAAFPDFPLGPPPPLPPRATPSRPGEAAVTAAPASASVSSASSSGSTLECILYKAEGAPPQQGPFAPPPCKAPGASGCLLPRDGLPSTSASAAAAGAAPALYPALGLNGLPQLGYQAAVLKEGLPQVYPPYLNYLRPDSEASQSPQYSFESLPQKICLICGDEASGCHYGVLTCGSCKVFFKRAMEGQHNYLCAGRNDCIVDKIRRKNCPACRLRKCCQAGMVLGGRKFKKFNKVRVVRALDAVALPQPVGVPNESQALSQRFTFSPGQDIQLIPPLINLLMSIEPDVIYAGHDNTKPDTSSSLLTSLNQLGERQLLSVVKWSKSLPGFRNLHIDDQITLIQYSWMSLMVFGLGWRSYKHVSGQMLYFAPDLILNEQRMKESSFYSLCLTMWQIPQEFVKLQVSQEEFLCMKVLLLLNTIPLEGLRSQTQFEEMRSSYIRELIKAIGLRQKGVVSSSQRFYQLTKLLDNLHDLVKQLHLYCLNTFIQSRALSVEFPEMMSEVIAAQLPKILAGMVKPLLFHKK

[7] = target: T2, Gamma-aminobutyric acid receptor subunit alpha-1; assay type: functional
Melanocortin receptor 3 = Melanocortin receptor 3 (Homo sapiens, UniProt P41968)
Further: assay procedure not described here.

5-hydroxytryptamine receptor 2A, sequence (P28223 whole entry): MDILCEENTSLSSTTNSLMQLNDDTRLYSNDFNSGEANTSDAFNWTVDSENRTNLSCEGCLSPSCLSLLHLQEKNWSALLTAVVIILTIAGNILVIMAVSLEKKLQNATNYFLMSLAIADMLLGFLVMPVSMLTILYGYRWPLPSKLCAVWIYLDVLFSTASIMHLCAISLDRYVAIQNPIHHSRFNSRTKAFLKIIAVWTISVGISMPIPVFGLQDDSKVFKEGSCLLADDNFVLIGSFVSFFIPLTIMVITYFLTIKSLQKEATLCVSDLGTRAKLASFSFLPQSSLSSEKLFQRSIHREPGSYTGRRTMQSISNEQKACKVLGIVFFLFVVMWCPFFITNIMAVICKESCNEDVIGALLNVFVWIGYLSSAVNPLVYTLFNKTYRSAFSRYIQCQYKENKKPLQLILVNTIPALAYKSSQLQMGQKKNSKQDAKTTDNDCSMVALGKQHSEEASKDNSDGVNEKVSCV
Growth hormone secretagogue receptor type 1, sequence (Q92847 whole entry): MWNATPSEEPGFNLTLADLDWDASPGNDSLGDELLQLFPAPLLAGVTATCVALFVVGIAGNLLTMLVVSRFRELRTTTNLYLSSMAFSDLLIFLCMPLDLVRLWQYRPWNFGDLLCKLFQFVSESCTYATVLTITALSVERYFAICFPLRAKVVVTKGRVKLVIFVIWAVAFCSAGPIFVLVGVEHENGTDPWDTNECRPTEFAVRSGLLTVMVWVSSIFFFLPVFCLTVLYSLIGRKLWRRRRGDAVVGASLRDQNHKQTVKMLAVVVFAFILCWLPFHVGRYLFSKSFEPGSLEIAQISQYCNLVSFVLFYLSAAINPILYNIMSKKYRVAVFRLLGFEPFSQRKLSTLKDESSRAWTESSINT
Histamine H1 receptor, sequence (P35367 whole entry): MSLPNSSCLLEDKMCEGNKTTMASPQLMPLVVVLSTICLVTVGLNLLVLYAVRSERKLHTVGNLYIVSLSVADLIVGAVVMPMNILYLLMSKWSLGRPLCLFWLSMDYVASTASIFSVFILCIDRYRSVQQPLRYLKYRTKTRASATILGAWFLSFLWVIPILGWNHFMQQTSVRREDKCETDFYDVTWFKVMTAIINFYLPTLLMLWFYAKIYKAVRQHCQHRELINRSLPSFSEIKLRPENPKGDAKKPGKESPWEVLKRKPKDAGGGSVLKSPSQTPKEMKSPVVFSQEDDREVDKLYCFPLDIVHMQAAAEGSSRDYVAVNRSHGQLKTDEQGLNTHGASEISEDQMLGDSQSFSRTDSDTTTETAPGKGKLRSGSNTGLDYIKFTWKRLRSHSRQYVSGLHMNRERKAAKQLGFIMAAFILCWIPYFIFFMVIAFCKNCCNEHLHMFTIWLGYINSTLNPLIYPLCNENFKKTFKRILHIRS
T2 sequence (P62813 whole entry): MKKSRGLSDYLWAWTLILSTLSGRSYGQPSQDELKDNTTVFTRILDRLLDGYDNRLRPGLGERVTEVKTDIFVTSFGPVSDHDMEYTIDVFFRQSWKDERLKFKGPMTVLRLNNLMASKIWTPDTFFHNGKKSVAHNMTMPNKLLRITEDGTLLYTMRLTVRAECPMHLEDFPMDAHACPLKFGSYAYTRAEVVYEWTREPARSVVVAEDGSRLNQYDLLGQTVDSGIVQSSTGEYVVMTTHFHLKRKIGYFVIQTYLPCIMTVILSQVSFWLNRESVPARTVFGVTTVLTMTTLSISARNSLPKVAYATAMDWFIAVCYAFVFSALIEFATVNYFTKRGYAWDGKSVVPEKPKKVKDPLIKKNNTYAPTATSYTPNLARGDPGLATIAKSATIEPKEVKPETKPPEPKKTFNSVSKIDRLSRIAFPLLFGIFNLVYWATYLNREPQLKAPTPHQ
Histamine H3 receptor, sequence (Q9Y5N1 whole entry): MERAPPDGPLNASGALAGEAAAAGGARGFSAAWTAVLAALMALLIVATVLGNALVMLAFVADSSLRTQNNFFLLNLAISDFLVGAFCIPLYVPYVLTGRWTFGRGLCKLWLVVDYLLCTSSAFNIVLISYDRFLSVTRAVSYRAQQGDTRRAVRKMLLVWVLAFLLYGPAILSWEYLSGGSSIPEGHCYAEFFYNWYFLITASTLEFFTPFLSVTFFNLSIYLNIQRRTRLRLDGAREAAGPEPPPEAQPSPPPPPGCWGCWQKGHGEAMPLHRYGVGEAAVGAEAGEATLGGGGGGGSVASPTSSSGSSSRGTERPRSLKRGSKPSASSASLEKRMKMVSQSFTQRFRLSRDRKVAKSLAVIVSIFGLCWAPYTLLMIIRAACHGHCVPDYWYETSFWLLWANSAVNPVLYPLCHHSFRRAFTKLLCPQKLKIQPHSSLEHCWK
Melanocortin receptor 3, sequence (P41968 whole entry): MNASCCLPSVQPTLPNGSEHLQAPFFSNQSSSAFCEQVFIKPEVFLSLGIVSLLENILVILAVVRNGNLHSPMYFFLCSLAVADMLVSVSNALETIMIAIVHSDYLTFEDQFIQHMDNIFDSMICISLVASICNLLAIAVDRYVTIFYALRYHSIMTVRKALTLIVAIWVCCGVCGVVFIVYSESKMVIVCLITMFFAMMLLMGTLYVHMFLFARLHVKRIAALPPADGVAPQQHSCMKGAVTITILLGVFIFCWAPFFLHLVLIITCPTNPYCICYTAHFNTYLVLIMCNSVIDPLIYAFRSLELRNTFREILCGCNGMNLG

| Compound | AC50 [1] [µM] | AC50 (Histamine H1 receptor) [µM] | AC50 (Histamine H3 receptor) [µM] | AC50 [2] [µM] | AC50 [3] [µM] | AC50 [4] [µM] | AC50 [5] [µM] | AC50 [6] [µM] | AC50 (Progesterone receptor) [µM] | AC50 [7] [µM] | AC50 (Melanocortin receptor 3) [µM] |
| --- | --- | --- | --- | --- | --- | --- | --- | --- | --- | --- | --- |
| C=C[C@@]1(C)CC(=O)[C@]2(O)[C@@]3(C)[C@@H](O)CCC(C)(C)[C@@H]3[C@H](OC(=O)CCN(C)C)[C@H](OC(C)=O)[C@@]2(C)O1 | > 30 | > 30 | > 30 | > 30 | > 30 | > 30 | > 30 | > 30 | > 30 | > 30 | > 30 |
| CC(=O)OCC(=O)[C@@]1(O)CC[C@H]2[C@@H]3CCC4=CC(=O)CC[C@]4(C)C3=CC[C@@]21C [ANECORTAVE ACETATE] | > 10 | > 10 | > 10 | > 10 | > 10 | > 10 | > 10 | > 30 | > 30 | > 10 | > 10 |
| NS(=O)(=O)c1cc2c(cc1C(F)(F)F)NC(Cc1ccccc1)NS2(=O)=O (stereo not given) [BENDROFLUMETHIAZIDE] | > 10 | > 10 | > 10 | > 10 | > 10 | > 10 | > 10 | > 30 | > 10 | > 10 | > 10 |
| O=C(CCCN1CCC(n2c(O)nc3ccccc32)CC1)c1ccc(F)cc1 [BENPERIDOL] | 17 | 0.73 | 18 | > 30 | 0.12 | > 30 | > 30 | 13 | 29 | > 30 | > 30 |
| CCN(CC)C(=O)C1CN2CCc3cc(OC)c(OC)cc3C2CC1OC(C)=O (stereo not given) [BENZQUINAMIDE] | > 30 | > 30 | > 30 | 2.72 | 1.57 | > 30 | > 30 | 17 | > 30 | > 30 | > 30 |
| CCOC(=O)NNc1ccc(N(CC)CC(C)O)nn1 (stereo not given) [CADRALAZINE] | > 30 | > 30 | > 30 | 0.5 | > 30 | > 30 | > 30 | > 30 | > 30 | > 30 | > 30 |
| CO[C@@]1(NC(=O)Cc2cccs2)C(=O)N2C(C(=O)O)=C(COC(N)=O)CS[C@@H]21 [CEFOXITIN] | > 30 | > 30 | > 30 | > 30 | > 30 | > 10 | > 30 | > 30 | > 30 | > 30 | > 30 |
| COCCOC(=O)C1=C(C)NC(C)=C(C(=O)OC/C=C/c2ccccc2)C1c1cccc([N+](=O)[O-])c1 (stereo not given) [CILNIDIPINE] | > 30 | > 30 | > 30 | > 30 | > 30 | > 30 | > 30 | > 30 | > 30 | > 30 | > 30 |
| CCC(C)(Oc1ccc(C2(c3ccc(OC(C)(CC)C(=O)O)cc3)CCCCC2)cc1)C(=O)O (stereo not given) [CLINOFIBRATE] | > 30 | > 30 | > 30 | > 30 | > 30 | > 30 | > 30 | > 30 | > 30 | > 30 | > 30 |
| CCCCC[C@H](O)/C=C/[C@H]1[C@H](O)CC(=O)[C@@H]1C/C=C\CCCC(=O)O [DINOPROSTONE] | > 30 | > 30 | > 30 | 15 | > 30 | > 30 | > 30 | > 30 | 4.5 | > 30 | > 30 |
| CC(C)c1cc2c(cc1S(=O)(=O)O)[C@@]1(C)CCC[C@@](C)(C(=O)O)[C@@H]1CC2 [ECABET] | > 30 | > 30 | > 30 | > 30 | > 30 | > 30 | > 30 | > 30 | > 30 | > 30 | > 30 |
| COC(=O)N[C@@H](C)CNc1nccc(-c2cn(C(C)C)nc2-c2cc(Cl)cc(NS(C)(=O)=O)c2F)n1 [ENCORAFENIB] | > 30 | > 30 | > 30 | > 30 | > 30 | > 30 | > 30 | > 30 | > 30 | 23.1 | > 30 |
| CCCN(CC)C(CC)C(=O)Nc1c(C)cccc1C (stereo not given) [ETIDOCAINE] | > 30 | > 30 | > 30 | > 30 | > 30 | > 30 | > 30 | > 30 | > 30 | > 30 | > 30 |
| Nc1nc(F)nc2c1ncn2[C@@H]1O[C@H](COP(=O)(O)O)[C@@H](O)[C@@H]1O [FLUDARABINE PHOSPHATE] | > 30 | > 30 | > 30 | > 30 | > 30 | > 30 | > 30 | > 30 | > 30 | > 30 | > 30 |
| CCCCCCOC(=O)CCC(=O)CN [HEXAMINOLEVULINATE] | > 30 | > 30 | > 30 | 9.4 | > 30 | > 30 | > 30 | 24 | > 30 | > 30 | > 30 |
